Experimental data from patent US20140057915A1, “KINASE INHIBITORS” (TOPIVERT PHARMA LIMITED, priority 2012, published 2014).

Tests used:
[1] = biological target: cSrc (Homo sapiens, UniProt P12931); assay: c-Src enzyme inhibition (FRET); type: biochemical; conditions: Table 4a1
In short: (§1)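 Kinase activity is measured on a dual-labelled synthetic peptide by FRET. ATP is supplied as an 800 μM solution for c-Src and a 60 μM solution for Syk. Compound is tested at four added concentrations, 4 to 0.004 μg/mL.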

[2] = biological target: Syk (Homo sapiens, UniProt P43405); assay: Syk enzyme inhibition (FRET); type: biochemical; conditions: Table 4a1
In short: as §1

[3] = biological target: GSK3α (Homo sapiens, UniProt P49840); assay: GSK 3α enzyme inhibition (FRET), Method 1; type: biochemical; conditions: Table 4a1
In short: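 GSK3α was preincubated with test compound for 2 hr at RT, then a FRET peptide substrate and ATP were added for 1 hr. Protease development for 1 hr cleaved only non-phosphorylated peptide, and phosphorylation was read as the coumarin/fluorescein emission ratio. Concentrations given are those of the added solutions: enzyme 500 ng/mL, peptide 8 μM, ATP 40 μM.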

[4] = test system: TNFα release, d-U937 cells; assay: LPS-induced TNFα release in d-U937 cells; type: cell-based; conditions: Homo sapiens, dU937; relative to 10 μg/mL BIRB796; Table 4c1; read-out: LPS Induced Release of Cytokine in d-U937 Cells, TNFα REC50
In short: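 Sandwich ELISA quantifies cytokine in supernatants after 4 hr LPS challenge (0.1 μg/mL) of PMA-differentiated (100 ng/mL, 48–72 hr) U937 macrophages given compound 2 hr beforehand. REC50 derived from concentration-response curve, inhibition calculated relative to vehicle.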

[5] = test system: IL-8 release, d-U937 cells; assay: LPS-induced IL-8 release in d-U937 cells; type: cell-based; conditions: Homo sapiens, dU937; Table 4c1; read-out: LPS Induced Release of Cytokine in d-U937 Cells, IL-8 IC50
In short: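 IL-8 release after a 4 hr challenge with LPS (0.1 μg/mL, E. coli 0111:B4) following a 2 hr compound pretreatment. Cells were human U937 monocytes differentiated to macrophage-type with PMA 100 ng/mL for 48–72 hr. Relative 50% effective concentration derived from concentration–response data.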

[6] = test system: ICAM-1 expression, BEAS2B cells; assay: Poly I:C-induced ICAM-1 expression in BEAS2B cells; type: cell-based; conditions: Homo sapiens, BEAS-2B; read-out: Poly IC induced ICAM1 in BEAS2B, IC50
In short: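 Cell-based ELISA for surface ICAM-1 in human BEAS2B cells 18 h after transfection with the RNA-virus mimic poly I:C (1 μg/mL, with Oligofectamine), compounds added 2 h beforehand. OD450–655 divided by Crystal Violet OD595 per well; percent inhibition relative to vehicle.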

[7] = test system: d-U937 cells; assay: Cell viability: MTT assay; type: cell-based, human; conditions: 1 μg/mL
In short: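 MTT reduction (1 h, DMSO solubilisation, A550) measured after compound treatment at 1 or 10 μg/mL of differentiated U937 cells for 4 h (5% FCS RPMI1640) or 24 h (10% FCS). Percentage viability loss computed relative to 0.5% DMSO vehicle, with increases tabulated as negative values.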

Sequence of GSK3α (P49840 whole entry): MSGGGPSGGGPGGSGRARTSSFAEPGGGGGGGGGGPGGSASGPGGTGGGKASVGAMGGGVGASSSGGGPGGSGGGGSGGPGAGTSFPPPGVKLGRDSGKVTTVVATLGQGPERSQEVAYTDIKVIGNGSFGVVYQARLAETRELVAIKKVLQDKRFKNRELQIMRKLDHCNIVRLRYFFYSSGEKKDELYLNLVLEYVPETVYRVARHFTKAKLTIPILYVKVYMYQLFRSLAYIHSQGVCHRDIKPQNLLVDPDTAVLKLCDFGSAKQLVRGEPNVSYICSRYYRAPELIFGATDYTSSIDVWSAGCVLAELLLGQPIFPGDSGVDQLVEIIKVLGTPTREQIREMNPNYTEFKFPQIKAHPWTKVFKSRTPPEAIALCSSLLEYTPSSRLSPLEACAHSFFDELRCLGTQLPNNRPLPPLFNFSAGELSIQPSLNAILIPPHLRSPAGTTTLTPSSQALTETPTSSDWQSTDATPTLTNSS
Sequence of cSrc (P12931 whole entry): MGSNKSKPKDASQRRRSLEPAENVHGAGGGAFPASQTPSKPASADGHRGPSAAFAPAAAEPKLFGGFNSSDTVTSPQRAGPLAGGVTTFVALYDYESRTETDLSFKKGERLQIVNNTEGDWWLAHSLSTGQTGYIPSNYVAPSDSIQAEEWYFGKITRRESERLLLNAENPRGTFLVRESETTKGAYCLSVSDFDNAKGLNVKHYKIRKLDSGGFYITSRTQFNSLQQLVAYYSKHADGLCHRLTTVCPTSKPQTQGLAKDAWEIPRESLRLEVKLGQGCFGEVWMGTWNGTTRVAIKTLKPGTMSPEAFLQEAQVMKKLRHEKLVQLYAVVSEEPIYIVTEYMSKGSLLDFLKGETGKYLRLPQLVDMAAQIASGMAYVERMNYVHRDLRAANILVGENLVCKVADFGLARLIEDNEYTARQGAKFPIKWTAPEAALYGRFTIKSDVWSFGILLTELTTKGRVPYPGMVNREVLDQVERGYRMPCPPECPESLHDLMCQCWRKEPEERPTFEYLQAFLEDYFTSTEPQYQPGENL

Row | SMILES | IC50 [1] | IC50 [2] | IC50 [3] | EC50 [4] | IC50 [5] | IC50 [6] | Cell viability at time point in d-U937 cells, 4 h [7] | Cell viability at time point in d-U937 cells, 24 h [7]
1 | Cc1csc(-n2nc(C(C)(C)C)cc2NC(=O)Nc2ccc(Oc3ccnc(Nc4cccc(C(=O)NCCN5CCOCC5)c4)n3)c3ccccc23)c1 [Example 24, 3-((4-((4-(3-(3-(tert-butyl)-1-(4-methylthiophen-2-yl)-1H-pyrazol-5-yl)ureido)naphthalen-1-yl)oxy)pyrimidin-2-yl)amino)-N-(2-morpholinoethyl)benzamide] | 1 nM | 14 nM | 207 nM | 1.4 nM | 0.3 nM | 1 nM | −ve (−ve and +ve indicate that the value is below and above respectively, the no significant effect threshold, defined as 30% inhibition at 1 μg/mL at the time point indicated) | −ve (−ve and +ve indicate that the value is below and above respectively, the no significant effect threshold, defined as 30% inhibition at 1 μg/mL at the time point indicated)
2 | Cc1ccc(-n2nc(C(C)(C)C)cc2NC(=O)Nc2ccc(Oc3ccnc(Nc4cccc(C(=O)NCCN5CCN(C)CC5)c4)n3)c3ccccc23)cc1 [Example 25, 3-((4-((4-(3-(3-(tert-butyl)-1-(p-tolyl)-1H-pyrazol-5-yl)ureido)naphthalen-1-yl)oxy)pyrimidin-2-yl)amino)-N-(2-(4-methylpiperazin-1-yl)ethyl)benzamide] | 4 nM | > 1330 nM | 285 nM | 0.6 nM | 1.5 nM | 1.9 nM | −ve (−ve and +ve indicate that the value is below and above respectively, the no significant effect threshold, defined as 30% inhibition at 1 μg/mL at the time point indicated) | −ve (−ve and +ve indicate that the value is below and above respectively, the no significant effect threshold, defined as 30% inhibition at 1 μg/mL at the time point indicated)
3 | Cc1ccc(-n2nc(C(C)(C)C)cc2NC(=O)Nc2ccc(Oc3ccnc(Nc4cccc(C(=O)N(C)C)c4)n3)c3ccccc23)cc1 [Example 26, 3-((4-((4-(3-(3-(tert-butyl)-1-(p-tolyl)-1H-pyrazol-5-yl)ureido)naphthalen-1-yl)oxy)pyrimidin-2-yl)amino)-N,N-dimethylbenzamide] | 6 nM | 14 nM | 390 nM | 0.5 nM | 2.3 nM | 11.1 nM | −ve (−ve and +ve indicate that the value is below and above respectively, the no significant effect threshold, defined as 30% inhibition at 1 μg/mL at the time point indicated) | −ve (−ve and +ve indicate that the value is below and above respectively, the no significant effect threshold, defined as 30% inhibition at 1 μg/mL at the time point indicated)
4 | Cc1ccc(-n2nc(C(C)(C)C)cc2NC(=O)Nc2ccc(Oc3ccnc(Nc4cccc(C(=O)N5CCOCC5)c4)n3)c3ccccc23)cc1 [Example 27, 1-(3-(tert-butyl)-1-(p-tolyl)-1H-pyrazol-5-yl)-3-(4-((2-((3-(morpholine-4-carbonyl)phenyl)amino)pyrimidin-4-yl)oxy)naphthalen-1-yl)urea] | 4 nM | 39 nM | 311 nM | 1.4 nM | 4.1 nM | 11.6 nM | −ve (−ve and +ve indicate that the value is below and above respectively, the no significant effect threshold, defined as 30% inhibition at 1 μg/mL at the time point indicated) | −ve (−ve and +ve indicate that the value is below and above respectively, the no significant effect threshold, defined as 30% inhibition at 1 μg/mL at the time point indicated)
5 | COc1ccc(C(=O)NCCN(C)C)cc1Nc1nccc(Oc2ccc(NC(=O)Nc3cc(C(C)C)nn3-c3ccc(C)cc3)c3ccccc23)n1 [Example 28, N-(2-(dimethylamino)ethyl)-3-((4-((4-(3-(3-isopropyl-1-(p-tolyl)-1H-pyrazol-5-yl)ureido)naphthalen-1-yl)oxy)pyrimidin-2-yl)amino)-4-methoxybenzamide] | < 1 nM | 54 nM | > 14000 nM | 2.2 nM | 32.4 nM | 140 nM | −ve (−ve and +ve indicate that the value is below and above respectively, the no significant effect threshold, defined as 30% inhibition at 1 μg/mL at the time point indicated) | −ve (−ve and +ve indicate that the value is below and above respectively, the no significant effect threshold, defined as 30% inhibition at 1 μg/mL at the time point indicated)
6 | COc1ccc(C(=O)NCCN2CCOCC2)cc1Nc1nccc(Oc2ccc(NC(=O)Nc3cc(C(C)(C)C)nn3-c3ccc(C)cc3)c3ccccc23)n1 [Example 31, 3-((4-((4-(3-(3-(tert-butyl)-1-(p-tolyl)-1H-pyrazol-5-yl)ureido)naphthalen-1-yl)oxy)pyrimidin-2-yl)amino)-4-methoxy-N-(2-morpholinoethyl)benzamide] | 3 nM | 51 nM | 9630 nM | 2.8 nM | 7.1 nM | 12 nM | −ve (−ve and +ve indicate that the value is below and above respectively, the no significant effect threshold, defined as 30% inhibition at 1 μg/mL at the time point indicated) | −ve (−ve and +ve indicate that the value is below and above respectively, the no significant effect threshold, defined as 30% inhibition at 1 μg/mL at the time point indicated)
7 | COc1ccc(C(=O)NCCO)cc1Nc1nccc(Oc2ccc(NC(=O)Nc3cc(C(C)C)nn3-c3ccc(C)cc3)c3ccccc23)n1 [Example 32, N-(2-hydroxyethyl)-3-((4-((4-(3-(3-isopropyl-1-(p-tolyl)-1H-pyrazol-5-yl)ureido)naphthalen-1-yl)oxy)pyrimidin-2-yl)amino)-4-methoxybenzamide] | < 2 nM | 152 nM | > 14600 nM | 3.1 nM | 17.1 nM | 86.7 nM | −ve (−ve and +ve indicate that the value is below and above respectively, the no significant effect threshold, defined as 30% inhibition at 1 μg/mL at the time point indicated) | −ve (−ve and +ve indicate that the value is below and above respectively, the no significant effect threshold, defined as 30% inhibition at 1 μg/mL at the time point indicated)
8 | COc1ccc(C(=O)NCCO)cc1Nc1nccc(Oc2ccc(NC(=O)Nc3cc(C(C)(C)C)nn3-c3ccc(C)cc3)c3ccccc23)n1 [Example 33, 3-((4-((4-(3-(3-(tert-butyl)-1-(p-tolyl)-1H-pyrazol-5-yl)ureido)naphthalen-1-yl)oxy)pyrimidin-2-yl)amino)-N-(2-hydroxyethyl)-4-methoxybenzamide] | 3 nM | 98 nM | > 14300 nM | 1.5 nM | 4.2 nM | 143 nM | −ve (−ve and +ve indicate that the value is below and above respectively, the no significant effect threshold, defined as 30% inhibition at 1 μg/mL at the time point indicated) | −ve (−ve and +ve indicate that the value is below and above respectively, the no significant effect threshold, defined as 30% inhibition at 1 μg/mL at the time point indicated)
9 | COc1ccc(-n2nc(C(C)C)cc2NC(=O)Nc2ccc(Oc3ccnc(Nc4cc(C(=O)NCCO)ccc4OC)n3)c3ccccc23)cc1 [Example 34, N-(2-hydroxyethyl)-3-((4-((4-(3-(3-isopropyl-1-(4-methoxyphenyl)-1H-pyrazol-5-yl)ureido)naphthalen-1-yl)oxy)pyrimidin-2-yl)amino)-4-methoxybenzamide] | 2 nM | 85 nM | > 14200 nM | 14.2 nM | 73.5 nM | 79.9 nM | +ve (−ve and +ve indicate that the value is below and above respectively, the no significant effect threshold, defined as 30% inhibition at 1 μg/mL at the time point indicated) | −ve (−ve and +ve indicate that the value is below and above respectively, the no significant effect threshold, defined as 30% inhibition at 1 μg/mL at the time point indicated)
